Measured values published in the supplement of paper PMC10307832.

How the values were obtained:
Experiment in all cases: relative viability (nuclei count vs DMSO), 5 days (fraction); higher = more cells survive
NCI-H1915 = tested on: NCI-H1915
In short: (§1)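 Relative viability equals treated-well nuclei counts divided by vehicle-well nuclei counts. Counts came from 4× images of lung cancer cell lines grown in 1536-well plates for 5 days after pin-tool dosing on the day after seeding. Dosing used one drug alone or a fixed anchor-drug dose plus five library-drug doses (not always all listed) in √10 steps, and values are medians of duplicate plates.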

HCC-15 = tested on: HCC-15
In short: as §1

NCI-H1651 = tested on: NCI-H1651
In short: as §1

HARA = tested on: HARA
In short: as §1

HCC-78 = tested on: HCC-78
In short: as §1

PC-14 = tested on: PC-14
In short: as §1

NCI-H2347 = tested on: NCI-H2347
In short: as §1

LC-2-ad = tested on: LC-2-ad
In short: as §1

LU99A = tested on: LU99A
In short: as §1

NCI-H838 = tested on: NCI-H838
In short: as §1

NCI-H2023 = tested on: NCI-H2023
In short: as §1

SW 1573 = tested on: SW 1573
In short: as §1

NCI-H1355 = tested on: NCI-H1355
In short: as §1

NCI-H2126 = tested on: NCI-H2126
In short: as §1

COR-L23 = tested on: COR-L23
In short: as §1

ABC-1 = tested on: ABC-1
In short: as §1

NCI-H2085 = tested on: NCI-H2085
In short: as §1

EPLC-272H = tested on: EPLC-272H
In short: as §1

NCI-H1993 = tested on: NCI-H1993
In short: as §1

NCI-H650 = tested on: NCI-H650
In short: as §1

NCI-H358 = tested on: NCI-H358
In short: as §1

UMC-11 = tested on: UMC-11
In short: as §1

SMILES: NC(=O)Nc1cc(-c2cccc(F)c2)sc1C(=O)N[C@H]1CCCNC1 [AZD7762] + CS(=O)(=O)CCNCc1ccc(-c2ccc3ncnc(Nc4ccc(OCc5cccc(F)c5)c(Cl)c4)c3c2)o1 [Lapatinib] (partner 2 µM)
- relative viability (NCI-H1915; first compound 0.01 µM): 1
- relative viability (NCI-H1915; first compound 0.03162 µM): 1
- relative viability (NCI-H1915; first compound 0.1 µM): 0.943
- relative viability (NCI-H1915; first compound 0.3162 µM): 0.909
- relative viability (NCI-H1915; first compound 1 µM): 0.933
- relative viability (HCC-15; first compound 0.01 µM): 0.842
- relative viability (HCC-15; first compound 0.03162 µM): 0.823
- relative viability (HCC-15; first compound 0.1 µM): 0.807
- relative viability (HCC-15; first compound 0.3162 µM): 0.782
- relative viability (HCC-15; first compound 1 µM): 0.907
- relative viability (NCI-H1651; first compound 0.01 µM): 0.93
- relative viability (NCI-H1651; first compound 0.03162 µM): 0.832
- relative viability (NCI-H1651; first compound 0.1 µM): 0.909
- relative viability (NCI-H1651; first compound 0.3162 µM): 0.607
- relative viability (NCI-H1651; first compound 1 µM): 0.195
- relative viability (HARA; first compound 0.01 µM): 0.851
- relative viability (HARA; first compound 0.03162 µM): 0.763
- relative viability (HARA; first compound 0.1 µM): 0.759
- relative viability (HARA; first compound 0.3162 µM): 0.781
- relative viability (HARA; first compound 1 µM): 0.256
- relative viability (HCC-78; first compound 0.01 µM): 0.863
- relative viability (HCC-78; first compound 0.03162 µM): 0.791
- relative viability (HCC-78; first compound 0.1 µM): 0.842
- relative viability (HCC-78; first compound 0.3162 µM): 0.653
- relative viability (HCC-78; first compound 1 µM): 0.304
- relative viability (PC-14; first compound 0.01 µM): 0.345
- relative viability (PC-14; first compound 0.03162 µM): 0.305
- relative viability (PC-14; first compound 0.1 µM): 0.348
- relative viability (PC-14; first compound 0.3162 µM): 0.256
- relative viability (PC-14; first compound 1 µM): 0.299
- relative viability (NCI-H2347; first compound 0.01 µM): 1.11
- relative viability (NCI-H2347; first compound 0.03162 µM): 0.986
- relative viability (NCI-H2347; first compound 0.1 µM): 1.07
- relative viability (NCI-H2347; first compound 0.3162 µM): 0.934
- relative viability (NCI-H2347; first compound 1 µM): 1.17
- relative viability (LC-2-ad; first compound 0.01 µM): 1.05
- relative viability (LC-2-ad; first compound 0.03162 µM): 1.04
- relative viability (LC-2-ad; first compound 0.1 µM): 0.47
- relative viability (LC-2-ad; first compound 0.3162 µM): 0.392
- relative viability (LC-2-ad; first compound 1 µM): 0.258
- relative viability (LU99A; first compound 0.01 µM): 0.954
- relative viability (LU99A; first compound 0.03162 µM): 1.1
- relative viability (LU99A; first compound 0.1 µM): 0.952
- relative viability (LU99A; first compound 0.3162 µM): 0.789
- relative viability (LU99A; first compound 1 µM): 0.416
- relative viability (NCI-H838; first compound 0.01 µM): 0.917
- relative viability (NCI-H838; first compound 0.03162 µM): 0.908
- relative viability (NCI-H838; first compound 0.1 µM): 1.07
- relative viability (NCI-H838; first compound 0.3162 µM): 0.903
- relative viability (NCI-H838; first compound 1 µM): 0.268
- relative viability (NCI-H2023; first compound 0.01 µM): 0.601
- relative viability (NCI-H2023; first compound 0.03162 µM): 0.758
- relative viability (NCI-H2023; first compound 0.1 µM): 0.366
- relative viability (NCI-H2023; first compound 0.3162 µM): 0.198
- relative viability (NCI-H2023; first compound 1 µM): 0.102
- relative viability (SW 1573; first compound 0.01 µM): 1.29
- relative viability (SW 1573; first compound 0.03162 µM): 1.23
- relative viability (SW 1573; first compound 0.1 µM): 1.16
- relative viability (SW 1573; first compound 0.3162 µM): 1.24
- relative viability (SW 1573; first compound 1 µM): 1.12
- relative viability (NCI-H1355; first compound 0.01 µM): 1
- relative viability (NCI-H1355; first compound 0.03162 µM): 0.993
- relative viability (NCI-H1355; first compound 0.1 µM): 1.01
- relative viability (NCI-H1355; first compound 0.3162 µM): 1.02
- relative viability (NCI-H1355; first compound 1 µM): 0.719
- relative viability (NCI-H2126; first compound 0.01 µM): 0.774
- relative viability (NCI-H2126; first compound 0.03162 µM): 0.82
- relative viability (NCI-H2126; first compound 0.1 µM): 0.834
- relative viability (NCI-H2126; first compound 0.3162 µM): 0.803
- relative viability (NCI-H2126; first compound 1 µM): 0.821
- relative viability (COR-L23; first compound 0.01 µM): 1.16
- relative viability (COR-L23; first compound 0.03162 µM): 1.06
- relative viability (COR-L23; first compound 0.1 µM): 0.953
- relative viability (COR-L23; first compound 0.3162 µM): 0.729
- relative viability (COR-L23; first compound 1 µM): 0.131
- relative viability (ABC-1; first compound 0.01 µM): 1.46
- relative viability (ABC-1; first compound 0.03162 µM): 1.33
- relative viability (ABC-1; first compound 0.1 µM): 0.983
- relative viability (ABC-1; first compound 0.3162 µM): 1.2
- relative viability (ABC-1; first compound 1 µM): 0.981
- relative viability (NCI-H2085; first compound 0.01 µM): 0.804
- relative viability (NCI-H2085; first compound 0.03162 µM): 0.878
- relative viability (NCI-H2085; first compound 0.1 µM): 0.873
- relative viability (NCI-H2085; first compound 0.3162 µM): 0.78
- relative viability (NCI-H2085; first compound 1 µM): 0.6
- relative viability (EPLC-272H; first compound 0.01 µM): 0.875
- relative viability (EPLC-272H; first compound 0.03162 µM): 1.19
- relative viability (EPLC-272H; first compound 0.1 µM): 0.846
- relative viability (EPLC-272H; first compound 0.3162 µM): 0.967
- relative viability (EPLC-272H; first compound 1 µM): 0.912
- relative viability (NCI-H1993; first compound 0.01 µM): 0.791
- relative viability (NCI-H1993; first compound 0.03162 µM): 0.789
- relative viability (NCI-H1993; first compound 0.1 µM): 0.664
- relative viability (NCI-H1993; first compound 0.3162 µM): 0.89
- relative viability (NCI-H1993; first compound 1 µM): 0.793
- relative viability (NCI-H650; first compound 0.01 µM): 1.04
- relative viability (NCI-H650; first compound 0.03162 µM): 1.11
- relative viability (NCI-H650; first compound 0.1 µM): 0.813
- relative viability (NCI-H650; first compound 0.3162 µM): 0.747
- relative viability (NCI-H650; first compound 1 µM): 0.827
- relative viability (NCI-H358; first compound 0.01 µM): 0.478
- relative viability (NCI-H358; first compound 0.03162 µM): 0.537
- relative viability (NCI-H358; first compound 0.1 µM): 0.497
- relative viability (NCI-H358; first compound 0.3162 µM): 0.451
- relative viability (NCI-H358; first compound 1 µM): 0.327
- relative viability (UMC-11; first compound 0.01 µM): 0.936
- relative viability (UMC-11; first compound 0.03162 µM): 1.01
- relative viability (UMC-11; first compound 0.1 µM): 0.871
- relative viability (UMC-11; first compound 0.3162 µM): 0.743
- relative viability (UMC-11; first compound 1 µM): 0.398
